Laboratory results: PubChem BioAssay AID2060893 (Molecular Pharmacology Branch, DTP, NCI, 2025)

System: K86415-001-R-J1-PDC complex spheroids, viability
Assay: Anticancer human tumor K86415-001-R-J1-PDC patient-derived lung adenocarcinoma cell line growth inhibition [RAS]
Settings: for IC50: curve of first compound; for viability, T/C: stronger effect = lower value
How it was run: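 Multi-cell-type spheroids: tumor cells plus HUVEC endothelial cells and mesenchymal stem cells. RAS-pathway inhibitors were combined with targeted agents, each dosed in half-log steps down from clinical Cmax, or from 10 microM when Cmax was unknown.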
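Also: spheroids exposed to agents for seven days before readout.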

In the case of `C=CC(=O)N1CCN(c2nc(OCC3CCCN3C)nc3c(F)c(-c4nc(N)cc(C)c4C(F)(F)F)c(Cl)cc23)C(C)C1` (centres undefined) + CCn1c(-c2cc(N3CCN(C)CC3)cnc2C(C)OC)c2c3cc(ccc31)-c1csc(n1)CC(NC(=O)C1CC1C)C(=O)N1CCCC(N1)C(=O)OCC(C)(C)C2, the IC50 (second compound 0.000949 µM) is reported as less than 3.16 nM, the IC50 (second compound 0.003 µM) is reported as less than 3.16 nM and the IC50 (second compound 0.00949 µM) is reported as less than 3.16 nM. It also gave an IC50 (second compound 0.03 µM) of less than 3.16 nM, an IC50 (second compound 0.0949 µM) of less than 3.16 nM and an IC50 (second compound 0.3 µM) of less than 3.16 nM. The viability, T/C (second compound 0.000949 µM, first compound 0.00316 µM) was 14%, the viability, T/C (second compound 0.000949 µM, first compound 0.01 µM) was 11.3% and the viability, T/C (second compound 0.000949 µM, first compound 0.0316 µM) was 7.59%. The viability, T/C (second compound 0.000949 µM, first compound 0.1 µM) was 8%, the viability, T/C (second compound 0.000949 µM, first compound 0.316 µM) was 8.62% and the viability, T/C (second compound 0.000949 µM, first compound 1 µM) was 8.31%. The viability, T/C (second compound 0.003 µM, first compound 0.00316 µM) was 9.34%, the viability, T/C (second compound 0.003 µM, first compound 0.01 µM) was 6.02% and the viability, T/C (second compound 0.003 µM, first compound 0.0316 µM) was 5.36%. For the same compound, the viability, T/C (second compound 0.003 µM, first compound 0.1 µM) was 5.95%, the viability, T/C (second compound 0.003 µM, first compound 0.316 µM) was 6.92% and the viability, T/C (second compound 0.003 µM, first compound 1 µM) was 5.35%. For the same compound, the viability, T/C (second compound 0.00949 µM, first compound 0.00316 µM) was 4.68%, the viability, T/C (second compound 0.00949 µM, first compound 0.01 µM) was 4.68% and the viability, T/C (second compound 0.00949 µM, first compound 0.0316 µM) was 4.36%. For the same compound, the viability, T/C (second compound 0.00949 µM, first compound 0.1 µM) was 4.25%, the viability, T/C (second compound 0.00949 µM, first compound 0.316 µM) was 4.08% and the viability, T/C (second compound 0.00949 µM, first compound 1 µM) was 3.96%. The viability, T/C (second compound 0.03 µM, first compound 0.00316 µM) was 3.4%, the viability, T/C (second compound 0.03 µM, first compound 0.01 µM) was 3.36% and the viability, T/C (second compound 0.03 µM, first compound 0.0316 µM) was 2.8%. For the same compound, the viability, T/C (second compound 0.03 µM, first compound 0.1 µM) was 2.79%, the viability, T/C (second compound 0.03 µM, first compound 0.316 µM) was 3.36% and the viability, T/C (second compound 0.03 µM, first compound 1 µM) was 3.36%. The viability, T/C (second compound 0.0949 µM, first compound 0.00316 µM) was 2.57%, the viability, T/C (second compound 0.0949 µM, first compound 0.01 µM) was 2.3% and the viability, T/C (second compound 0.0949 µM, first compound 0.0316 µM) was 3.16%. For the same compound, the viability, T/C (second compound 0.0949 µM, first compound 0.1 µM) was 2.37%, the viability, T/C (second compound 0.0949 µM, first compound 0.316 µM) was 2.22% and the viability, T/C (second compound 0.0949 µM, first compound 1 µM) was 3.4%. For the same compound, the viability, T/C (second compound 0.3 µM, first compound 0.00316 µM) was 2.23%, the viability, T/C (second compound 0.3 µM, first compound 0.01 µM) was 2.68% and the viability, T/C (second compound 0.3 µM, first compound 0.0316 µM) was 2.5%. It also gave a viability, T/C (second compound 0.3 µM, first compound 0.1 µM) of 2.49%, a viability, T/C (second compound 0.3 µM, first compound 0.316 µM) of 3.18% and a viability, T/C (second compound 0.3 µM, first compound 1 µM) of 2.66%.

`CC1(C)CCC(Nc2ncc(C(F)(F)F)c(-c3c[nH]c4c(P(C)(C)=O)c(C#N)ccc34)n2)CN1` (centres undefined) + CCn1c(-c2cc(N3CCN(C)CC3)cnc2C(C)OC)c2c3cc(ccc31)-c1csc(n1)CC(NC(=O)C1CC1C)C(=O)N1CCCC(N1)C(=O)OCC(C)(C)C2 showed an IC50 (second compound 0.000949 µM) of 1.19 nM, an IC50 (second compound 0.003 µM) of less than 0.949 nM and an IC50 (second compound 0.00949 µM) of less than 0.949 nM. The IC50 (second compound 0.03 µM) was less than 0.949 nM, the IC50 (second compound 0.0949 µM) was less than 0.949 nM and the IC50 (second compound 0.3 µM) was less than 0.949 nM. For the same compound, the viability, T/C (second compound 0.000949 µM, first compound 0.000949 µM) was 57.1%, the viability, T/C (second compound 0.000949 µM, first compound 0.003 µM) was 45.9% and the viability, T/C (second compound 0.000949 µM, first compound 0.00949 µM) was 37.9%. The viability, T/C (second compound 0.000949 µM, first compound 0.03 µM) was 39.5%, the viability, T/C (second compound 0.000949 µM, first compound 0.0949 µM) was 42.2% and the viability, T/C (second compound 0.000949 µM, first compound 0.3 µM) was 39.5%. It also gave a viability, T/C (second compound 0.003 µM, first compound 0.000949 µM) of 24.9%, a viability, T/C (second compound 0.003 µM, first compound 0.003 µM) of 18.3% and a viability, T/C (second compound 0.003 µM, first compound 0.00949 µM) of 20.9%. It also gave a viability, T/C (second compound 0.003 µM, first compound 0.03 µM) of 20.8%, a viability, T/C (second compound 0.003 µM, first compound 0.0949 µM) of 24.6% and a viability, T/C (second compound 0.003 µM, first compound 0.3 µM) of 23.6%. For the same compound, the viability, T/C (second compound 0.00949 µM, first compound 0.000949 µM) was 10.8%, the viability, T/C (second compound 0.00949 µM, first compound 0.003 µM) was 10.4% and the viability, T/C (second compound 0.00949 µM, first compound 0.00949 µM) was 11.1%. For the same compound, the viability, T/C (second compound 0.00949 µM, first compound 0.03 µM) was 13.3%, the viability, T/C (second compound 0.00949 µM, first compound 0.0949 µM) was 12.4% and the viability, T/C (second compound 0.00949 µM, first compound 0.3 µM) was 14.3%. It also gave a viability, T/C (second compound 0.03 µM, first compound 0.000949 µM) of 6.32%, a viability, T/C (second compound 0.03 µM, first compound 0.003 µM) of 7.15% and a viability, T/C (second compound 0.03 µM, first compound 0.00949 µM) of 6.95%. It also gave a viability, T/C (second compound 0.03 µM, first compound 0.03 µM) of 7.05%, a viability, T/C (second compound 0.03 µM, first compound 0.0949 µM) of 6.99% and a viability, T/C (second compound 0.03 µM, first compound 0.3 µM) of 8.91%. It also gave a viability, T/C (second compound 0.0949 µM, first compound 0.000949 µM) of 5.16%, a viability, T/C (second compound 0.0949 µM, first compound 0.003 µM) of 5.23% and a viability, T/C (second compound 0.0949 µM, first compound 0.00949 µM) of 6.96%. The viability, T/C (second compound 0.0949 µM, first compound 0.03 µM) was 5.02%, the viability, T/C (second compound 0.0949 µM, first compound 0.0949 µM) was 6.21% and the viability, T/C (second compound 0.0949 µM, first compound 0.3 µM) was 7.98%. The viability, T/C (second compound 0.3 µM, first compound 0.000949 µM) was 3.6%, the viability, T/C (second compound 0.3 µM, first compound 0.003 µM) was 4.59% and the viability, T/C (second compound 0.3 µM, first compound 0.00949 µM) was 5.58%. The viability, T/C (second compound 0.3 µM, first compound 0.03 µM) was 6.23%, the viability, T/C (second compound 0.3 µM, first compound 0.0949 µM) was 5.28% and the viability, T/C (second compound 0.3 µM, first compound 0.3 µM) was 6.87%.
